As usually defined, the IC50 is the point on the concentration scale where inhibition reaches its midpoint. Usually bioavailability stands for the share of a dose that reaches the circulation, judged against a reference dose that is usually intravenous. What is called half-life is the time in which the quantity being followed falls by half. A word on the clearance: it is the volume of plasma or blood freed of the substance per unit of time. Usually efflux ratio stands for the permeability from basolateral to apical divided by that in the opposite direction, in the common usage. The term Papp denotes the rate of passage across a membrane or cell layer, normalised by area and donor concentration. For orientation: inhibition means the percentage by which the read-out fell short of the control.

Active and inactive are the calls of the source. The rule behind the calls is not given here.

We go through 7 molecules from ChEMBL document CHEMBL3085750, “Discovery of 2-methylpyridine-based biaryl amides as γ-secretase modulators for the treatment of Alzheimer's disease” (Bioorg Med Chem Lett, 2013).

Data set [1] in a line: Ratio of drug level in brain to plasma in mouse at 10 mg/kg, po after 2 hrs. The following applies: read-out: BPR. Format: ADME, organism-based. Set-up: dose 10 mg/kg, route oral.
A further data set concerns the target Cytochrome P450 2D6 (Homo sapiens, UniProt P10635). The experiment in a line: Inhibition of CYP2D6 (unknown origin) after 10 mins. Format: ADME.
For another data set, the target named is Cytochrome P450 3A4 (Homo sapiens, UniProt P08684). The experiment in a line: Inhibition of CYP3A4 (unknown origin) after 5 mins. It counts as ADME.
The nature of data set [2]: Metabolic stability in human liver microsomes at 1 uM after 30 mins. It counts as ADME. The note with it: read-out: Stability.
Data set [3] in a line: Metabolic stability in rat liver microsomes at 1 uM after 30 mins. The following applies: read-out: Stability. Format: ADME. Background: Liver microsomes are vesicles of endoplasmic reticulum, rich in cytochrome P450 enzymes.
In data set [4] the target is Gamma-secretase. The experiment in a line: Modulation of gamma-secretase in HEK293 cells expressing guinea pig Swedish mutant SFV-APP695sw assessed as inhibition of amyloid beta-42 production after 16 to 18 hrs by HTRF assay. Format: cell-based, Homo sapiens. On the technique in general: Time-resolved FRET reads energy transfer from a long-lived donor to a nearby acceptor.

Data set [5] concerns Plasma. Kind of data set: Unbound plasma concentration in Sprague-Dawley rat at 300 mg/kg. Format: ADME, organism-based. Set-up: dose 300 mg/kg. The note with it: in vivo.
Data set [6] is described as follows: Ratio of unbound plasma concentration in Sprague-Dawley rat to gamma-secretase-mediated amyloid beta-42 production in HEK293 cells. Format: ADME, cell-based.
Data set [7] concerns Rattus norvegicus. The experiment in a line: Toxicity in Sprague-Dawley rat assessed as notch-associated effects at 30 to 300 mg/kg, po after 4 days by light microscopic analysis. It counts as organism-based. Set-up: dose 30-300 mg/kg, route oral. The note with it: in vivo, 96 h.
The subject of data set [8] is Rattus norvegicus. Kind of data set: Toxicity in Sprague-Dawley rat assessed as histopathological changes at 30 to 300 mg/kg, po after 4 days by light microscopic analysis. Format: organism-based. On the set-up: dose 30-300 mg/kg, route oral. The note with it: in vivo, 96 h.
The test system of data set [9] is Rattus norvegicus. Kind of data set: Reduction of amyloid beta-42 level in Sprague-Dawley rat CSF at 300 mg/kg, po after 24 hrs by immunoassay relative to control. Format: functional. Set-up: scale not given: the % may be the effect or the level left.
The test system of data set [10] is Rattus norvegicus. Kind of data set: Reduction of amyloid beta-42 level in Sprague-Dawley rat CSF at 100 mg/kg, po after 24 hrs by immunoassay relative to control. It counts as functional. On the set-up: scale not given: the % may be the effect or the level left.
For data set [11], the system named is Rattus norvegicus. The experiment in a line: Reduction of amyloid beta-42 level in Sprague-Dawley rat CSF at 30 mg/kg, po after 24 hrs by immunoassay relative to control. Set-up: scale not given: the % may be the effect or the level left. Format: functional.
Data set [12] can be described thus: Ratio of drug level in brain to plasma in Sprague-Dawley rat. It counts as ADME, cell-free. The following applies: read-out: BPR.
A further data set deals with Brain. The experiment in a line: Drug uptake in Sprague-Dawley rat brain at 100 mg/kg, po after 4 to 36 hrs by LC/MS analysis. The following applies: in vivo. It counts as ADME, organism-based. On the set-up: dose 100 mg/kg, route oral.
In data set [13] the test system is Plasma. The experiment in a line: Drug uptake in Sprague-Dawley rat plasma at 100 mg/kg, po after 4 to 36 hrs by LC/MS analysis. Format: ADME, organism-based. Set-up: dose 100 mg/kg, route oral. The note with it: in vivo.
The subject of data set [14] is Rattus norvegicus. Kind of data set: Reduction of amyloid beta level in Sprague-Dawley rat CSF at 100 mg/kg, po after 36 hrs by immunoassay. It counts as functional, organism-based. Set-up: dose 100 mg/kg.
In data set [15] the test system is Rattus norvegicus. The experiment in a line: Reduction of amyloid beta-40 level in Sprague-Dawley rat brain at 100 mg/kg, po after 4 hrs by immunoassay. It counts as functional, organism-based. On the set-up: dose 100 mg/kg.
Data set [16] has as its system Rattus norvegicus. Kind of data set: Reduction of amyloid beta-40 level in Sprague-Dawley rat CSF at 100 mg/kg, po after 4 hrs by immunoassay. Format: functional, organism-based. On the set-up: dose 100 mg/kg.
Data set [17] concerns Rattus norvegicus. The experiment in a line: Reduction of amyloid beta-42 level in Sprague-Dawley rat brain at 100 mg/kg, po after 4 hrs by immunoassay relative to control. It counts as functional. Set-up: scale not given: the % may be the effect or the level left.
The test system of data set [18] is Rattus norvegicus. Kind of data set: Reduction of amyloid beta-42 level in Sprague-Dawley rat CSF at 100 mg/kg, po after 4 hrs by immunoassay relative to control. Format: functional. Set-up: scale not given: the % may be the effect or the level left.
The nature of data set [19]: Oral bioavailability in cynomolgus monkey at 5 mg/kg. Format: ADME, organism-based, Macaca fascicularis. The note with it: in vivo.
Data set [20] in a line: Half life in cynomolgus monkey at 2 mg/kg, iv. It counts as ADME, organism-based, Macaca fascicularis. Set-up: dose 2 mg/kg, route intravenous. The following applies: in vivo.
Data set [21] in a line: Volume of distribution at steady state in cynomolgus monkey at 2 mg/kg, iv. The following applies: in vivo, read-out: Vdss. On the set-up: dose 2 mg/kg, route intravenous. It counts as ADME, organism-based, Macaca fascicularis.
A short description of data set [22]: Clearance in cynomolgus monkey at 2 mg/kg, iv. It counts as ADME, organism-based, Macaca fascicularis. Set-up: dose 2 mg/kg, route intravenous. The following applies: in vivo.
Data set [23] in a line: Oral bioavailability in rat at 5 mg/kg. The note with it: in vivo. Format: ADME, organism-based.
A short description of data set [24]: Volume of distribution at steady state in rat at 2 mg/kg, iv. Format: ADME, organism-based. On the set-up: dose 2 mg/kg, route intravenous. The note with it: in vivo, read-out: Vdss.
A short description of data set [25]: Half life in rat at 2 mg/kg, iv. The following applies: in vivo. On the set-up: dose 2 mg/kg, route intravenous. It counts as ADME, organism-based.
Data set [26] can be described thus: Clearance in rat at 2 mg/kg, iv. Format: ADME, organism-based. Set-up: dose 2 mg/kg, route intravenous. The note with it: in vivo.
Data set [27] is described as follows: Efflux ratio of apparent permeability in pig LLC-PK1 cells. It counts as ADME, cell-based, Sus scrofa.
Data set [28] is described as follows: Apparent permeability in pig LLC-PK1 cells. Format: ADME, cell-based, Sus scrofa.
The target in data set [29] is T1, Gamma-secretase (Homo sapiens) (UniProt Q96BI3+Q9NZ42+Q8WW43+P49768+Q92542+P49810). Kind of data set: Selectivity ratio of IC50 for gamma-secretase-mediated notch processing in HEK293 cells by dual-cell luciferase reporter gene assay to IC50 for gamma-secretase-mediated amyloid beta-42 production in HEK293 cells by HTRF assay. Format: cell-based. A general note: Reporter assays use an easily measured gene product as a stand-in for the process of interest.

Data set [30] deals with Gamma-secretase. The experiment in a line: Modulation of gamma-secretase in HEK293 cells expressing guinea pig Swedish mutant SFV-APP695sw coexpressing DLL4 assessed as inhibition of notch processing in human TE671 cells after 3 days by dual-cell luciferase reporter gene assay. It counts as cell-based.
In data set [31] the target is Gamma-secretase. The experiment in a line: Modulation of gamma-secretase in HEK293 cells expressing guinea pig Swedish mutant SFV-APP695sw assessed as inhibition of amyloid beta-40 production after 16 to 18 hrs by HTRF assay. Format: cell-based, Homo sapiens.
Data set [32] has as its target T1, Gamma-secretase (Homo sapiens). Kind of data set: Modulation of gamma-secretase in HEK293 cells expressing guinea pig Swedish mutant SFV-APP695sw assessed as inhibition of amyloid beta-42 production at 10 uM after 16 to 18 hrs by HTRF assay relative to control. Format: cell-based.

Chain of Cytochrome P450 3A4 (P08684 whole entry): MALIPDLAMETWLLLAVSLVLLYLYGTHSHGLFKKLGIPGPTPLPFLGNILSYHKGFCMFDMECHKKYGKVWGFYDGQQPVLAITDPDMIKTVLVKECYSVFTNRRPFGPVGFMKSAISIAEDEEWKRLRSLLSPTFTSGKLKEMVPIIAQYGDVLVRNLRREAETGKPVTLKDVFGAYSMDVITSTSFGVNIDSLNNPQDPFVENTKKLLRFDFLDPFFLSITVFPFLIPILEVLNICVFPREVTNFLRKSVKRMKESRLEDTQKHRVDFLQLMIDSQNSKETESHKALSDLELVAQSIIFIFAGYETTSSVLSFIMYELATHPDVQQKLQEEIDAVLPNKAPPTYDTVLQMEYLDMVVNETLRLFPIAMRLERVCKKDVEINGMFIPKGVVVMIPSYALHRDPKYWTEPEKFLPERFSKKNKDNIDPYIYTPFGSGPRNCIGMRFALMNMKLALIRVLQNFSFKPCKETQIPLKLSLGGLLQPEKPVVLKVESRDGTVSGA
Chain of Cytochrome P450 2D6 (P10635 whole entry): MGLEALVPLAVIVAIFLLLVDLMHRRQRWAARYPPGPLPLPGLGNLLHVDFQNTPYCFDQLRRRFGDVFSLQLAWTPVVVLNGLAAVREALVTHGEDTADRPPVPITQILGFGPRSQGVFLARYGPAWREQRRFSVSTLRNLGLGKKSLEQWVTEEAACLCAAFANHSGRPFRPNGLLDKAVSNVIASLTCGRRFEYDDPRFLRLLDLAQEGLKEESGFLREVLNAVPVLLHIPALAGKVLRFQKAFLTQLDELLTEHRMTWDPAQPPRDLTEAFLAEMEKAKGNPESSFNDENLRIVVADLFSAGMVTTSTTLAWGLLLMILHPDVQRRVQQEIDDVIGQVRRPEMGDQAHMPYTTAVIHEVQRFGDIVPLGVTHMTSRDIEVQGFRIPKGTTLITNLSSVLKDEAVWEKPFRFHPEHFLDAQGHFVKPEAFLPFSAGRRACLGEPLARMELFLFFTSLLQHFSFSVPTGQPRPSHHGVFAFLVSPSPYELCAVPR

For the molecule `O=S(=O)(Nc1ccc(-c2nnco2)cc1)c1cc(Cl)cc(Cl)c1`, the Kp at 2 h in data set [1] was 0.16. Moreover, the results for the IC50 against Cytochrome P450 2D6, against Cytochrome P450 3A4 and on Gamma-secretase [4] were 15100 nM, 27000 nM and 2440 nM, respectively. The values for the microsomal CLint at 1 µM in data set [2] and in data set [3] were 94 µL/min/mg and 287 µL/min/mg, respectively.
As for `Cc1cc(-c2ccc(NC(=O)[C@H](C)c3cc(C(F)(F)F)cc(C(F)(F)F)c3)cc2)ccn1`, the “Cp(f)” value with Plasma [5] was found to be 0.57 nM. Also, the Ratio in data set [6] came out at 2. For the same molecule, the Activity entry with Rattus norvegicus [7] is reported as “Non-toxic”; in the data set on Rattus norvegicus [8], “Non-toxic”; in the data set on Rattus norvegicus [9], 55%; with Rattus norvegicus [10], 44%; in the data set on Rattus norvegicus [11] it was 32%; in the data set on Rattus norvegicus [17], 33%. The molecule further displayed an Activity with Rattus norvegicus [18] of 41%. In addition, the Kp in data set [12] was 2. In addition, the Drug uptake result in the data set with Brain and in the data set with Plasma [13] was “Active” each time. For the same molecule, the outcome in the data set with Rattus norvegicus [14] was Active. Also, the outcome in the data set on Rattus norvegicus [15] and with Rattus norvegicus [16] was inactive. The figures for the bioavailability in data set [19] and in [23] were 56% and 100%, respectively. Also, the half-life was 15.9 h in data set [20] and 6 h in data set [25]. In addition, the values for the Vd in data set [21] and in data set [24] were 3.1 L/kg and 4.3 L/kg, respectively. Also, the clearance in data set [22] was 2.67 mL/min/kg; in data set [26] it was 9.67 mL/min/kg. Moreover, the efflux ratio in data set [27] was determined as 1.2. Further, in data set [28], the Papp amounted to 7.8 ×10⁻⁶ cm/s. The Ratio IC50 in data set [29] amounted to 45. For the same molecule, the half-inhibitory concentration (IC50) on Cytochrome P450 2D6 is 4100 nM; against Cytochrome P450 3A4, above 27000 nM; on Gamma-secretase [30] it was 11800 nM; at Gamma-secretase [31] it was 3100 nM; at Gamma-secretase [4] it was 260 nM. Further, the microsomal CLint at 1 µM in data set [2] and in data set [3] was below 14 µL/min/mg in each case.
On to `CCN(CC)c1ccc(C)c(Nc2nc(-c3ccc(-n4cnc(C)c4)cc3)cs2)c1`, for which the IC50 came out at 560 nM on Gamma-secretase [31] and 130 nM on Gamma-secretase [4].
Turning to `O=S(=O)(Nc1ccc(-c2cnco2)cc1)c1cc(Cl)cc(Cl)c1`, in data set [1], the Kp at 2 h came to 0.03. Further, the IC50 against Cytochrome P450 2D6 stood at 2900 nM; against Cytochrome P450 3A4, 1600 nM; at Gamma-secretase [4], 1540 nM. In addition, the microsomal CLint at 1 µM in data set [2] worked out at 32 µL/min/mg; in data set [3], 166 µL/min/mg.
Take `Cc1cc(-c2ccc(NC(=O)c3cc(C(F)(F)F)cc(C(F)(F)F)c3)cc2)ccn1`: the inhibition in data set [32] came to 58%. In addition, the figures for the IC50 at Cytochrome P450 2D6, at Cytochrome P450 3A4 and on Gamma-secretase [4] were above 27000 nM, above 27000 nM and above 10000 nM, respectively. Also, the microsomal CLint at 1 µM was 106 µL/min/mg in [2] and 14 µL/min/mg in data set [3].
On to `CCCc1cc(-c2ccc(NS(=O)(=O)c3cc(C(F)(F)F)cc(C(F)(F)F)c3)cc2)ccn1`, for which the half-inhibitory concentration (IC50) against Cytochrome P450 2D6 is 1800 nM; on Cytochrome P450 3A4, above 27000 nM; on Gamma-secretase [4], 4060 nM. Moreover, the microsomal CLint at 1 µM was 270 µL/min/mg in data set [2] and 122 µL/min/mg in [3].
On to `O=S(=O)(Nc1ccc(-c2ccncc2)cc1)c1cc(Cl)cc(Cl)c1`, for which the Kp at 2 h in data set [1] is 0.09. Further, the IC50 is 200 nM against Cytochrome P450 2D6, 600 nM against Cytochrome P450 3A4 and 2750 nM on Gamma-secretase [4]. Moreover, the microsomal CLint at 1 µM in data set [2] was 35 µL/min/mg; in [3], 85 µL/min/mg.
